In US7488576B2, “Methods for diagnosis and treatment of psychiatric disorders” (The Regents of the University of California, priority 2000, dated 2009):
Values joined by “and” are separate entries in the source; they are usually repeats but may differ in a detail not shown here. Identical values can stand only once.

Assays:
DBP = assay: Gene expression in rat brain after stimulant treatment (Affymetrix U34A GeneChip), prefrontal cortex; settings: 24 h, read-out: Fold Induction of DBP
Description: (§1) In experiments conducted during the development of the present invention, the rat animal model was used. This model is commonly accepted by those in the art for experiments involving psychiatric disorders. In some experiments, rats were treated with a single dose of methamphetamine (4 mg/kg) and sacrificed 24 hours later. This timepoint was chosen as that most likely to detect changes of relevance to mania and psychosis. It was hypothesized that at 24 hours, most short term gene induction relevant to acute intoxication and behavioral activation would have subsided. […] As mania and psychosis are typically chronic processes in man, more persistent gene changes are more likely to be central to pathophysiological mechanisms. Gene expression was examined in the prefrontal cortex and amygdala, using the Afymetrix U34A GeneChip, which interrogates approximately 7,000 known genes and 1,000 ESTs (expressed sequence tags) using an oligonucleotide nicroarray (See, Lipshutz et al., Nat. Genet. 21:20 [1999]). These brain regions were chosen based on the extensive literature that highlights their central role in cognition and emotion (See e.g., Heimer and Alheid, Adv. Exp. Med. Biol. 1:295 [1991]).
(§2) A two-fold increase or decrease in expression was chosen as a conventional empirical cut-off. Thus, at least a two-fold change in each of two independent animal experiments was used to select those genes with the most robust and reproducible change in expression. In each experiment, pooled tissues from three methamphetamine-treated and three control rats were used. In these analyses, standard default settings of the Affymetrix GeneChip Expression Algorithm were used. A gene had to be called “Present” and “Changed,” in at least one out of two experiments and had to have an Average Difference Change greater than 50, as well as a fold change greater than 2 in two out of two experiments. […] The genes that were induced more than two-fold in both experiments were also identified by their GenBank accession numbers, as indicated in Tables 1 and 2.
(§3) After 24 hours, the rats were humanely sacrificed and the brains were harvested.
(§4) Tissues from each brain region from the three animals in each experimental group were pooled (i.e., test and control animals). Total RNA was isolated from the tissue using standard protocols known in the art. Briefly, STAT-60 extraction buffer, and phenol/chloroform extraction was used. cDNA was synthesized and used as templates to produce biotin-labelled antisense cRNAs using an in vitro transcription reaction. After fragmentation, the CRNA hybridization cocktail was prepared, cleaned, and applied to the Affymetrix GeneChip oligonucleotide array.
(§5) A two-fold increase or decrease in expression was chosen as a conventional empirical cut-off. […]

FDFT1 = assay: as above; settings: 24 h, read-out: Fold Induction of FDFT1
Description: as §1, §2, §3, §4, §5

GRK3 = assay: as above; settings: 24 h, read-out: Fold Induction of GRK3
Description: as §1, §2, §3, §4, §5

MALS-1 = assay: as above; settings: 24 h, read-out: Fold Induction of MALS-1
Description: as §1, §2, §3, §4, §5

ADORA3 = assay: Gene expression in rat brain after stimulant treatment (Affymetrix U34A GeneChip), amygdala; settings: 24 h, read-out: Fold Induction of ADORA3
Description: as §1, §2, §3, §4
(§6) A two-fold increase or decrease in expression was chosen as a conventional empirical cut-off. Thus, at least a two-fold change in each of two independent animal experiments was used to select those genes with the most robust and reproducible change in expression. In these analyses, standard default settings of the Affymetrix GeneChip Expression Algorithm were used.

FCGRT = assay: as above; settings: 24 h, read-out: Fold Induction of FCGRT
Description: as §1, §2, §3, §4, §6

FEZ2 = assay: as above; settings: 24 h, read-out: Fold Induction of FEZ2
Description: as §1, §2, §3, §4, §6

HSPB1 = assay: as above; settings: 24 h, read-out: Fold Induction of HSPB1
Description: as §1, §2, §3, §4, §6

IGF1 = assay: as above; settings: 24 h, read-out: Fold Induction of IGF1
Description: as §1, §2, §3, §4, §6

NDUFS8 = assay: as above; settings: 24 h, read-out: Fold Induction of NDUFS8
Description: as §1, §2, §3, §4, §6

NTRK3 = assay: as above; settings: 24 h, read-out: Fold Induction of NTRK3
Description: as §1, §2, §3, §4, §6

POLR2F = assay: as above; settings: 24 h, read-out: Fold Induction of POLR2F
Description: as §1, §2, §3, §4, §6

SULT1A1 = assay: as above; settings: 24 h, read-out: Fold Induction of SULT1A1
Description: as §1, §2, §3, §4, §6

FGFR1 = assay: Gene expression in rat brain after stimulant treatment (Affymetrix U34A GeneChip); format: in vivo; settings: 24 hours after single dose 4 mg/kg
Description: as §1
(§7) A two-fold increase or decrease in expression was chosen as a conventional empirical cut-off. Thus, at least a two-fold change in each of two independent animal experiments was used to select those genes with the most robust and reproducible change in expression. In each experiment, pooled tissues from three methamphetamine-treated and three control rats were used. In these analyses, standard default settings of the Affymetrix GeneChip Expression Algorithm were used. A gene had to be called “Present” and “Changed,” in at least one out of two experiments and had to have an Average Difference Change greater than 50, as well as a fold change greater than 2 in two out of two experiments. […] The genes that were induced more than two-fold in both experiments were also identified by their GenBank accession numbers, as indicated in Tables 1 and 2. […]

GRK2 = assay: as above; format: in vivo; settings: 24 hours after single dose 4 mg/kg, one value per each of two experiments
Description: as §1, §7

SMILES: CN[C@@H](C)Cc1ccccc1 [methamphetamine]
- fold induction at 4 mg/kg (DBP): 7
- fold induction at 4 mg/kg (FDFT1): 2.9
- fold induction at 4 mg/kg (GRK3): 14.2
- fold induction at 4 mg/kg (MALS-1): 2.9
- fold induction at 4 mg/kg (ADORA3): 2.7
- fold induction at 4 mg/kg (FCGRT): 3.2
- fold induction at 4 mg/kg (FEZ2): 2.3
- fold induction at 4 mg/kg (HSPB1): 2.8
- fold induction at 4 mg/kg (IGF1): 3
- fold induction at 4 mg/kg (NDUFS8): 20.8
- fold induction at 4 mg/kg (NTRK3): 2.7
- fold induction at 4 mg/kg (POLR2F): 3.9
- fold induction at 4 mg/kg (SULT1A1): 4.3
- average fold change of FGFR1 expression (FGFR1; average of two experiments): 4.1 fold
- fold increase of FGFR1 expression in one of the two experiments (FGFR1; one of the two experiments): 1.8 fold
- fold changes in GRK2 expression (GRK2): 1.1 fold and 1.0 fold
